These results are taken from patent publication US10800815B2, “Kv1.3 potassium channel antagonists” (cgtx-Peptide Development GmbH, priority 2014, dated 2020).

Data set [1] addresses T1, Kv1.3 channels expressed in Sf21 insect cells (Homo sapiens, UniProt P22001).
T1 construct: expressed in transfected cells; host or cells: Sf21 insect cells, baculovirus infection
In words: Stability ex vivo in human blood plasma, read out as IC50 on Kv1.3 (Example 3). It counts as in vitro ADME. The procedure:
The aim was to test the stability of the cgtx-544 peptide in blood plasma of mammals after different incubation times at room temperature (RT) and 37° C. Stability was defined as IC50 value of cgtx-544 after different incubation times at RT and 37° C. Blood plasma was prepared from fresh blood samples from healthy rats or humans. Heparin was added to fresh blood samples to prevent clogging. Plasma preparation was performed by centrifugation for 2 min at 2000×g at RT.
As the cgtx-544 peptide used in these experiments was incompletely folded, a higher IC50 than normal was determined.
To investigate the stability and activity in plasma the peptide was added to freshly prepared human and rat blood plasma at a final concentration of 2 μM. The samples were split into two aliquots and incubated at 37° C. and at room temperature (RT, 20° C.). For the electrophysiological analysis serial dilutions of the samples were prepared.

The next data set addresses T2, hERG (Homo sapiens, UniProt Q12809).
T2 construct: expressed in transfected cells; host or cells: HEK cells stably expressing hERG
Briefly: Patchliner automated patch clamp of hERG currents in HEK cells, two-point screening (Example 2). The note with it: for Normalized Block of hERG current: steady state at end of application. It counts as cell-based. The method, then:
To determine binding to Kv1.3, Jurkat cells endogenously expressing Kv1.3 were used. For binding to hERG, HEK cells stably expressing hERG were used.
Cell culture was performed using standard cell culture techniques. In brief, cells were grown on 10 cm culture dishes or T75 culture flasks in DMEM-based media. With a confluence of about 60-80%, cells were split every 2-3 days. For recordings on the Patchliner (Nanion), Jurkat cells were resuspended and then spinned in a centrifuge. Before spinning, HEK cells were treated with Trypsin, to detach them from the dish surface. After spinning, cells were resuspended in external recording buffer to a density of approximately 1-2 million cells per ml.
Internal recording solution: 50 mM KCl • 10 mM NaCl • 60 mM KF • 20 mM EGTA • 10 mM HEPES/KOH, pH 7.2, (Osm: ˜290 mOsm)
5 mM Mg-ATP and 0.3 mM Na-GTP were added fresh to the internal solution and pH adjusted to 7.2.
External recording buffer: 140 mM NaCl • 4 mM KCl • 1 mM MgCl2 • 2 mM CaCl2 • 5 mM D-Glucose monohydrate • 10 mM HEPES/NaOH pH 7.4, (Osm: ˜298 mOsm) Compounds
Electrophysiological recordings were performed with a Patchliner, recording up to 8 channels, simultaneously. The Patchliner is an automated patch clamp system utilizing borosilicate glass chips (NPC-16) for planar patch clamp, and operating via the PatchControlHT software. NPC-16 chips with a resistance of 3-5 MΩ for Jurkat cells and 2-3 MΩ for HEK cells were used for recordings. During recordings, cells were kept in a “cell hotel” where they were periodically pipetted up and down to maintain viability. […]
For pharmacology on hERG, peak amplitude at the 2nd −40 mV step (tail current) was calculated using online analysis functions in PatchMaster. The leak (calculated from the 1st step to −40 mV) was subtracted from this peak to calculate the true peak and these could be plotted as a function of time.
Values were exported to Excel to calculate concentration response curves in Igor. […] A Hill equation was fitted to estimate the IC50 for each compound and IC50 was calculated relative to maximum block. […]
A general note: The patch-clamp technique gives a direct electrical read-out from membranes.

Data set [2] relates to white blood cells in peripheral blood. Briefly: Haematology (WBC, neutrophil granulocytes, lymphocytes) in AIA rats. The format is in vivo, rat. The procedure: For the blood withdrawal the animals were narcotized briefly, the tail was disinfected and the tail vein was punctured with a cannula, 50 μl of blood were withdrawn with a heparin coated pipette and mixed with 5 μl of a stabilising agent (CPD) and 1 μl heparin (1.5 U/μl diluted 1:4 in 0.9% NaCl).
White Blood Cells (WBC) were counted with a Coulter Counter in the automatic mode.
Blood samples were taken regularly for monitoring of hematological parameters. Haematological parameters were assessed in all animals weekly before induction, at day of induction and 10 days after induction (days −21, −14, −7, 0 and 10). […] Absolute counts of white blood cells (WBC), neutrophil granulocytes and lymphocytes were analyzed among others, the last two also stated in percentage of total WBC. EDTA whole blood of seven individuals from both vehicle and cgtx-544 peptide therapy group was measured with Sysmex XT-2000i.
For screening the state of health of all individuals, complete haemograms were used again. EDTA whole blood of seven individuals from both MTX high-dose and low-dose therapy groups were measured with Sysmex XT-2000i.V weekly before induction, at day of induction and 4 and 7 days after induction (day −21, −14, −7, 0, 4 and 7; MTX low-dose therapy group additionally on day −3, when i.v. application started).

Like-named read-outs stand apart in the source and are kept apart here.

T2 sequence (Q12809 whole entry): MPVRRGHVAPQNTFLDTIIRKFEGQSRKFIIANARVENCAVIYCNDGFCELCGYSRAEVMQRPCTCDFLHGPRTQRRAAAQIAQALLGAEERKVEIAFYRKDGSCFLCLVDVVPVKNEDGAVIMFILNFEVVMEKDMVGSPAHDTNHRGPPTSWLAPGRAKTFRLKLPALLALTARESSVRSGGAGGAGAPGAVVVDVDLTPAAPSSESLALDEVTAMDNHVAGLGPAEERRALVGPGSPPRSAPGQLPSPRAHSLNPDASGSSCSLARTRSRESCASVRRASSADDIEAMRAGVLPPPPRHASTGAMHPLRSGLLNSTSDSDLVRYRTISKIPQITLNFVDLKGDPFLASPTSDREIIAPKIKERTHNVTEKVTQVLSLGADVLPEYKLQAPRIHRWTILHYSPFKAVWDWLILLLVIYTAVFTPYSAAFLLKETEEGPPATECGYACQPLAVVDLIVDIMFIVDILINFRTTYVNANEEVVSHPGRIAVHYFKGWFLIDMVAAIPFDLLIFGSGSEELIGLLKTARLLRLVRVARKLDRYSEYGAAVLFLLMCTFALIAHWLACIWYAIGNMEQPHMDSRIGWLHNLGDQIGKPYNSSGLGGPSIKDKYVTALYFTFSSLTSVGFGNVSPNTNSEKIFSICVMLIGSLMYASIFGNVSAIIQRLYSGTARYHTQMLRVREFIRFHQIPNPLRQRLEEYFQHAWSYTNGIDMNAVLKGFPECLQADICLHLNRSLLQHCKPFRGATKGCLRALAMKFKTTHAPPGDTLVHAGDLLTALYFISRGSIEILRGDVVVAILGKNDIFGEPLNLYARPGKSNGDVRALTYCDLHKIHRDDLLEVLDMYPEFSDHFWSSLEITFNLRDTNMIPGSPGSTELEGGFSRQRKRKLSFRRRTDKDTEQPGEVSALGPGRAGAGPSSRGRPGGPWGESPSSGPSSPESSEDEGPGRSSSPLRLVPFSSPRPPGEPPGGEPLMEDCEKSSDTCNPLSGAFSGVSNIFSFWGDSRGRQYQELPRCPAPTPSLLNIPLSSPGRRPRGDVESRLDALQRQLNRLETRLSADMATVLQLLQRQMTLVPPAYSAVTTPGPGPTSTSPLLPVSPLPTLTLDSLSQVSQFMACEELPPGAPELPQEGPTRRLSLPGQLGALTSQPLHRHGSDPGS
T1 sequence (P22001 whole entry): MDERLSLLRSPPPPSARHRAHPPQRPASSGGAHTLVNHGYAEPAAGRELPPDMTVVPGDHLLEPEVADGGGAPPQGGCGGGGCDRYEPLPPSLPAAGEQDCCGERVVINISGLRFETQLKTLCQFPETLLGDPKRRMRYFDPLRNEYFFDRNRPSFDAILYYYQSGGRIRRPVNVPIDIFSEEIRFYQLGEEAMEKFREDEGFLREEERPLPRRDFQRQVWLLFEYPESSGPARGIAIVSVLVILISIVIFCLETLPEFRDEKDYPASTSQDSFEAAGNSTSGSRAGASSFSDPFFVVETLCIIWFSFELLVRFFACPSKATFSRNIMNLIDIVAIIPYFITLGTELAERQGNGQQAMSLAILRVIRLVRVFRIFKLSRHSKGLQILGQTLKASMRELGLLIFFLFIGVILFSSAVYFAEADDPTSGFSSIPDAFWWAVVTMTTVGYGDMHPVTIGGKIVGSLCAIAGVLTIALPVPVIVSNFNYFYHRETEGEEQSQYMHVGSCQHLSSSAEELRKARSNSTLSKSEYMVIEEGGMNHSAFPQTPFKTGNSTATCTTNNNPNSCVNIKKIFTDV

As a reminder, the IC50 is the midpoint of a concentration-inhibition curve. Take `CC[C@H](C)[C@H](NC(=O)[C@@H](N)[C@@H](C)O)C(=O)N[C@H](C(=O)N[C@@H](CC(N)=O)C(=O)N[C@H](C(=O)N[C@@H](CCCCN)C(=O)N[C@H]1CSSC[C@@H]2NC(=O)[C@H](CCCCN)NC(=O)CNC(=O)[C@H](Cc3ccc(O)cc3)NC(=O)[C@@H]3CCCN3C(=O)[C@@H]3CSSC[C@@H](C(=O)O)NC(=O)[C@H](CCCNC(=N)N)NC(=O)[C@H](CC(N)=O)NC(=O)[C@@H]4CSSC[C@H](NC(=O)[C@@H]5CCCN5C(=O)[C@@H]5CCCN5C(=O)[C@H](CC(C)C)NC(=O)[C@H](CSSC[C@H](NC(=O)[C@H](CCCCN)NC(=O)[C@H](CCCNC(=N)N)NC(=O)[C@H](CC(N)=O)NC(=O)[C@H](CCSC)NC2=O)C(=O)N[C@@H](CCCCN)C(=O)N4)NC(=O)[C@H](CCC(N)=O)NC(=O)[C@H](CCCCN)NC(=O)[C@@H]2CCCN2C(=O)[C@H](CO)NC(=O)[C@H]([C@@H](C)O)NC1=O)C(=O)N[C@@H](CCCCN)C(=O)N[C@@H](C)C(=O)N[C@@H](CCC(N)=O)C(=O)N[C@@H]([C@@H](C)O)C(=O)NCC(=O)N3)C(C)C)[C@@H](C)CC` [Compound 7]: the “significant change in activity” value in data set [1] (24 h, 37° C. and RT) is “could not be detected”. Further, the “activity after incubation in plasma” value in data set [1] (48 h at RT) is listed as “remained unchanged”; in data set [1] (14 days at 37° C.) it was “no activity was detected”; in data set [1] (14 days at RT), “unchanged activity”. The IC50 in data set [1] (read-out: IC50 on Kv1.3 after incubation in plasma, 48 h at 37° C.) was 37.3 nM; in data set [1] (read-out: IC50 on Kv1.3 in plasma, time point 0 h) it was 20.9 nM. Moreover, the “Normalized Block of hERG current” value on hERG (5 μM) is recorded as 0.04; on hERG (10 μM), 0.07. In addition, the “effect on hERG current” value on hERG (hERG expressing HEK cells) is on record as “only low effects”. Besides, the generalized immunosuppression result in data set [2] (1 mg/kg 1× daily i.v.) is recorded as “did not show a generalized immunosuppression”. Also, the “WBC, neutrophil granulocytes and lymphocytes, absolute and relative cell counts” value in data set [2] (curative treatment, 1 mg/kg daily i.v.) was “comparable to vehicle treated individuals”; in data set [2] (preventive treatment, daily i.v. from day −3) it was “comparable to vehicle treated individuals”.
